Test results from patent US9662370B2, “Peptidyl diacylglycerides” (priority 2008, dated 2017).
Where no end group is shown, it is not given here. DAG = diacylglycerol ester at the C-terminus

Assays:
[1] = system: AR39 Chlamydia pneumoniae; experiment: Chlamydia pneumoniae clearance from infected THP-1 monocytes (flow cytometry); type: cell-based; settings: 25 ng/ml and 50 ng/ml
Protocol: THP-1 monocytes (5×10^4 cells/well) were cultured in Hank's Buffered Saline 1 with 10% FBS in a 24-well microplate. Cells were infected with […] AR39 Chlamydia pneumoniae (CPn) bacteria cells to give an MOI=1 and the infected cells were maintained for 72 hours after infection with a daily media change. Cells were either treated with the PDAG vehicle (0.01% Tween-20 in DMSO) or PDAG (25 ng/ml and 50 ng/ml) 24 hours prior to infection or 24 hours after infection. After the 72 hour incubation period cells were harvested and permeabilized with Cytofix/Cytoperm (BD Pharmingen) and mouse α-CPn monoclonal IgG (clone 61C75) was added and the permeabilized cells incubated for 1 hour. After incubation cells were washed and FITC labeled α-mouse IgG was added and incubated for 1 hour. Cells were again harvested and washed. Quantitation of infected cells was measured by flow cytometry. The viability of cells was determined by trypan blue exclusion.

IL-6 = IL-6 mRNA (real-time PCR) and IL-6 protein (ELISA) in fibroblasts stimulated with PDAG; type: cell-based; settings: 100 pg/ml PDAG, 24 h
Protocol: Fibroblasts were stimulated with synthetic PDAG for 24 h. RNA was extracted from the fibroblasts and IL-6 transcripts were measured by real-time PCR and IL-6 protein was measure in the media by ELISA. […] Likewise approximately 2-fold more IL-6 protein in the media of the PDAG treated fibroblasts (P=0.0001) was measured.

NALP3 = NALP3 transcripts in primary human fibroblasts incubated with PDAG; type: cell-based; settings: 100 pg/ml, overnight, P=0.007
Protocol: (§1) mRNA was extracted from primary human fibroblasts incubated overnight with 100 pg/ml synthetic PDAG. NALP3 and NFκB transcripts were measured.

NFκB = NFκB transcripts in primary human fibroblasts incubated with PDAG; type: cell-based; settings: 100 pg/ml, overnight, P=0.4
Protocol: as §1

Hepatitis B virus = experiment: HBV replication in HepDES19 cells (core DNA Southern blot); type: cell-based; settings: HepDES 19 cells
Protocol: A tetracycline inducible HBV-stable cell line, HepDES19 cells (Guo, 2007), were maintained in DMEM/F-12 medium with penicillin and streptomycin (Invitrogen), 10% FBS, 500 μg/ml G418 (Invitrogen) and 1 μg/ml tetracycline (Sigma-Aldrich, St. Louis, Mo.). To initiate the HBV replication in HepDES19 cells, tetracycline was withdrawn from the medium and the cell was cultured for 4-5 days before viral DNA analysis. To treat the cells with pDAG, the peptide was added in the tetracycline free medium and supplied on the cell culture daily. The concentration of solvent DMSO was adjusted to 0.01% in every treatment.
HBV core DNA was extracted from pDAG-treated HepDES19 cells as described previously (Guo, 2009). Briefly, cells from one 35 mm dish were lysed with 0.5 ml of lysis buffer (10 mM Tris-HCl pH 8.0, 10 mM EDTA, 1% NP40 and 2% sucrose) at 37° C. for 10 minutes. Cell debris and nuclei were removed by centrifugation and the supernatant was mixed with […] of 35% polyethylene glycol (PEG-8000) containing 1.5 M NaCl. After 1 hour incubation in ice, viral nucleocapsids were pelleted by centrifugation at 10,000 rpm for 5 min at 4° C., followed by 1 hour digestion at 37° C. in 200 μl of digestion buffer [0.5 mg/ml pronase (Calbiochem), 0.5% SDS, 150 mM NaCl, 25 mM Tris-HCl pH 8.0, and 10 mM EDTA]. […]

M. tuberculosis IgM = system: M. tuberculosis IgM; set-up: species or system New Zealand White rabbits; settings: rabbit, in vivo
Salmonella typhimurium = experiment: Lethal Salmonella typhimurium challenge in mice; type: in vivo, Swiss Webster mice
Protocol: Swiss Webster mice were challenged with a lethal dose, 5×10^3 cfu/mouse of Salmonella typhimurium. Fifteen of the mice were treated with 5 μg/ml PDAG 24 hours prior to the lethal inoculation. Mice were maintained and monitored daily for 10 days. […] By day 10, 12 mice in the PDAG treated group remained alive, whereas all had died in the untreated group. P<0.0001.

[2] = Stability of PDAG to hydrolysis; type: physicochemical; settings: acidic conditions

Row | Substance | Chlamydia pneumoniae clearance from infected monocytes [1] | IL-6 protein in the media (IL-6; ELISA, vs control, P=0.0001) | IL-6 mRNA levels (IL-6; vs untreated cells, P=0.001) | NALP3 transcripts increase (NALP3) | NFκB transcripts increase (NFκB) | Hepatitis B virus replication (Hepatitis B virus) | antigen specific IgM production (M. tuberculosis IgM) | mice remaining alive by day 10 (Salmonella typhimurium; fifteen treated mice, 5 μg/ml PDAG 24 hours prior to lethal inoculation, all untreated died, P<0.0001) | disease progression (Salmonella typhimurium; mice infected with a lethal dose of Salmonella typhimurium) | day on which mortality was first observed (Salmonella typhimurium; mice, 5×10^3 cfu/mouse, 5 μg/ml PDAG 24 hours prior to inoculation, control group day 4) | IgM titer, FCA+PDAG vs FCA only (M. tuberculosis IgM) | lability to hydrolysis [2]
1 | PDAG peptide: Peptide portion of PDAG without the lipid moiety (acALYDKGYTSKEQKDCVGI, SEQ ID NO:8) (Ac-ALYDKGYTSKEQKDCVGI) | induce Chlamydia pneumoniae clearance |  |  |  |  |  |  |  |  |  |  | 
2 | acALYDKGYTSKEQKDCVGI-DAG (Ac-ALYDKGYTSKEQKDCVGI-{DAG}) [PDAG, Peptidyl diacylglyceride: N-acetylated 18-mer peptide esterified at C-terminal isoleucine to 1-stearoyl-2-arachidonoyl-sn-glycerol] | induce Chlamydia pneumoniae clearance | approximately 2 fold | increase IL-6 mRNA levels | 1.75 fold | did not | suppresses Hepatitis B virus replication | two-fold increase | 12 mice | significantly delays disease progression | 7 days |  | 
3 | acALYDKGYTSKEQKDCVGI-DAG [native PDAG] |  |  |  |  |  |  |  |  |  |  | significantly greater | especially labile to hydrolysis under acidic conditions
